Results as given in publication PMC11566907, “Accelerated hit identification with target evaluation, deep learning and automated labs: prospective validation in IRAK1” (Journal of Cheminformatics, 2024).
Like-named read-outs stand apart in the source and are kept apart here.

Tests used:
IRAK1 [1] = target: T1, IRAK1 (Homo sapiens, UniProt P51617); assay: LanthaScreen Eu Kinase Binding Assay for IRAK1, hit dose-response assay (DRC); conditions: for DRC result, activity class: class by pIC50 value
T1 construct: purchased BPS Bioscience Inc. 40202
Text: The experimental method of LanthaScreen^TM Eu Kinase Binding Assay for IRAK1 was developed based on the Invitrogen^TM IRAK1-GST LanthaScreen^TM binding assay. Purified recombinant IRAK1-His (cat. # 40202) was purchased from BPS Bioscience Inc. (San Diego, CA, USA). Kinase tracer 236 (cat. # PR9078A) was purchased from Thermo Fisher Scientific Inc. (Waltham, MA, USA). Eu-W1024-anti-6xHis antibody (cat. #AD0400) and 384-well white ProxiPlates^TM (cat. # 6008289) were purchased from Perkin Elmer, Inc. (Waltham, MA, USA). Echo-qualified 384 well COC low dead volume source microplates (cat. #001-16128) and Echo-qualified 384 well polypropylene microplates (cat. #001-14615) were purchased from Beckman Coulter Inc.(Indianapolis, IN, USA). The assay was carried out in an enclosed workcell with subdued lighting. All reagents were prepared in the assay buffer (50 mM HEPES, 10 mM MgCl 2 , 1 mM EGTA, 0.01% Brij-35, 1 mM DTT) and kept on ice. These included 2 x tracer 236 (0.2 μ M), 2 x IRAK1 /antibody solution (20 nM IRAK1-His, 4 nM Eu-W1024-anti-6xHis antibody) and 2 x antibody solution (4 nM Eu-W1024-anti-6xHis antibody). Five microliters of 2 x tracer 236 was dispensed into a 384-well white ProxiPlate^TM, followed by either 5 μ l of 2 x IRAK1/antibody solution or 5 μ l of 2 x antibody solution on a Tempest® dispenser (Formulatrix, Inc., Bedford, MA, USA). The plate was sealed on a Wasp plate sealer (KBiosciences Limited, Basildon, Essex, UK) and centrifuged at 1000 x g for 15 s on a HiG^TM automated centrifuge (BioNex Solutions Inc., San Jose, CA, USA) and incubated at room temperature for 30 min. The plate was then peeled and read on a PHERAstar® FSX (BMG LABTECH Inc., Cary, NC, USA) with a LanthaScreen^TM module at 340/615, 665 nm. The TR-FRET ratio (acceptor emission/donor emission x 10,000) was used as the readout.
A dose-response assay was conducted for each of the compound in the diversified set of 283 hits. Each compound was assayed in an 8-point curve with approximately 4-fold dilutions (subject to Echo dispense volume limits), starting at 30 μ M, and the assays were run in triplicates. The exact concentrations are 30, 7.5, 1.875, 0.469, 0.117, 0.029, 0.007, 0.002 μM . In each plate, three replicates of a staurosporine titration curve starting at 3 μ M were assayed in parallel as a reference.
The IC 50 of each dose-response curve was derived by fitting a four-parameter logistic (4PL) model, shown in Eq. 3, where the respective variables are defined as follows: • A : Minimum asymptote. Response value when x approaches infinity. • D : Maximum asymptote. Response value when x is very small or close to zero. • B : Slope factor (Hill’s slope). Steepness of the curve. • C : Inflection point. The concentration of the analyte that gives half-maximal response. 3 f(x)=A+D-A/1+x/C^B The 4PL model was fitted for each compound with data points for all three replicates all at once. As an additional quality control, 4PL regression models for all sub-micromolar compounds were manually inspected. Computed IC 50 were capped within the range of measured concentrations. In seven cases, where curve fits were erroneous and produced IC 50 values above assay sensitivity range, IC 50 values were reduced to the highest concentration used in the assay (30 μ M).

IRAK1 [2] = target: T1, IRAK1; conditions: read-out: affinity; cited from earlier work
[3] = 8-point curve from 30 μM, triplicates, 4PL fit, read-out: DRC result, IC50
[4] = 8-point curve from 30 μM, triplicates, 4PL fit, read-out: DRC result, pIC50 (converted)

T1 sequence (P51617 whole entry): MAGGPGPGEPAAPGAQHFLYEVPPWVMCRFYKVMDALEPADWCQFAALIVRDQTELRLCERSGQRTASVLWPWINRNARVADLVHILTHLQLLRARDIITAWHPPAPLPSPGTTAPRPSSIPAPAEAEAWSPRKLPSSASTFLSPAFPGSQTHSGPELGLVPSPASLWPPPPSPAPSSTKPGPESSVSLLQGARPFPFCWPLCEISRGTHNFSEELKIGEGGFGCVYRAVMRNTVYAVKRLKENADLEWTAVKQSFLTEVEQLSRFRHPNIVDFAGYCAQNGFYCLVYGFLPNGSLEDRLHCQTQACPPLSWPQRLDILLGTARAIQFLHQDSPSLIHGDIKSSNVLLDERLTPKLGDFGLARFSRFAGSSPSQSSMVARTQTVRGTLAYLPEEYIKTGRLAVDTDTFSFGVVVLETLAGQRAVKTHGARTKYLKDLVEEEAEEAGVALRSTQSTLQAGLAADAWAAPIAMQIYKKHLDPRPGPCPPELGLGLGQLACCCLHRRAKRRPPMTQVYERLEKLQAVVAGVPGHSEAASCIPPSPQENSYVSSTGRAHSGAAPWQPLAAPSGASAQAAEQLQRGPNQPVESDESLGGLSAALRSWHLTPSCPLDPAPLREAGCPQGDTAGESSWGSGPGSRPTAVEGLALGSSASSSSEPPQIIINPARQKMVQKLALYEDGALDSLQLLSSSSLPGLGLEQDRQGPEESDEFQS

Structure (SMILES) | IC50 (IRAK1 [1]; [3]) [nM] | IC50 (IRAK1 [1]; [4]) [nM] | DRC result, activity class (IRAK1 [1]) | DRC result, pIC50 (IRAK1 [1]; 8-point curve from 30 μM, triplicates, 4PL fit) | IC50 (IRAK1 [2]) [nM]
CNc1cc2c(cn1)cc(-c1ccc(F)c(NC(=O)Nc3cc(C(C)(C)C)nn3C)c1)c(=O)n2C(C)C [A1] | 90 | 91.2 | nanomolar | – | –
Cc1nc(Nc2ncc(F)c(-c3cc(F)c4nc(C)n(C(C)C)c4c3)n2)ccc1N1CCN(C(C)C)CC1 [B1] | 20 | 19.1 | nanomolar | – | –
CCN1CCN(Cc2ccc(Nc3ncc(F)c(-c4cc(F)c5nc(C)n(C6CC6)c5c4)n3)nc2)CC1 [B2] | 60 | 63.1 | nanomolar | – | –
CC(C)(C)c1cc(NC(=O)NCc2ccc(-c3cnc4cc(-c5ccncc5)ccn34)cc2)n[nH]1 [C1] | 100 | – | nanomolar | 7.00 | –
CC(C)Cc1ccnc(NC(=O)Cc2ccc(-c3cnc4cc(-c5ccncc5)ccn34)cc2F)c1 [C2] | 50 | 52.5 | nanomolar | – | –
C=CC(=O)Nc1cccc(C(=O)Nc2ccc(NC(=O)c3cccc(-c4ccn[nH]4)n3)cc2)c1 [JH-X-119-01] | – | – | – | – | 9
